According to patent US20200115357A1, “LIVER X RECEPTORS (LXR) MODULATORS” (Phenex-FXR GmbH, priority 2017, published 2020):
Where two headings read alike, the source gives them in different places.

Legend:
[1] = Pharmacokinetics in mice, blood and liver exposure via LC-MS; format: in vivo; conditions: for oral bioavailability (in words): mice, oral administration; for blood exposure, 4 h / liver exposure, 4 h: po, Dose (mg) 20, C57BL/6J mice, 4 h after administration
Protocol: The pharmacokinetics of different sulfonamides was assessed in mice after single dosing and oral and intraperitoneal administrations. Blood and liver exposure was measured via LC-MS.
The study design was as follows:
Animals: C57BL/6J (Janvier) males
Diet: standard rodent chow
Vehicle for i.p. injection: 0.5% HPMC (w:v) in water, injection volume: <5 mL/kg
Animal handling: animals were withdrawn from food at least 12 h before administration
Design: single dose oral and bid ip administration, n=3 animals per group
Sacrifice: at t=4 h after administration
Bioanalytics: LC-MS of liver and blood samples

[2] = human liver microsomes; cited from earlier work
[3] = rat liver microsomes; cited from earlier work
[4] = molecular target: T1, GST-LXRβ ligand-binding domain (Homo sapiens, UniProt P55055, DUP175-175); test: TR-FRETβ activity assay (LXRβ-LBD / NCoA3 coactivator peptide, prestimulated with 24(S)-25-epoxycholesterol); format: biochemical; set-up: key to behavior in FRET assay: ag=agonist; ia=inverse agonist; conditions: for EC50: 1 μM 24(S)-25-epoxycholesterol as prestimulating agonist, read-out: FRETβ activity range (EC50); for behavior in FRET assay: agonist or inverse agonist
T1 construct: amino acids 156-461; NP009052; made in house; host or cells: E. coli
T1 sequence (P55055 with tags, fused parts or gaps DUP175-175): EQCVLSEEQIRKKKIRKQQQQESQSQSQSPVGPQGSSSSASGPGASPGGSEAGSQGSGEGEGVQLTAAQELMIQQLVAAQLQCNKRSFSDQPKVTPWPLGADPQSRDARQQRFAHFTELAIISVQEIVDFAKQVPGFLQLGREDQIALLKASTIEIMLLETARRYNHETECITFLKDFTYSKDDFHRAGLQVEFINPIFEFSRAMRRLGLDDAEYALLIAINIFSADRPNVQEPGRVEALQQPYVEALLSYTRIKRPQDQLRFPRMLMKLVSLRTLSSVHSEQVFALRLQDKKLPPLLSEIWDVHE
Outline: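 E. coli-expressed GST-LXRβ LBD (aa 156-461) at 76 nM with biotinylated NCoA3 coactivator peptide (400 nM), in 240 mM KCl, BSA and Triton-X-100. Anti-GST-Tb cryptate/streptavidin-XL665 TR-FRET after 1 h equilibration at 4 °C, excitation 340 nm, emission 615 and 665 nm. Run in triplicate.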

[5] = molecular target: T2, LXRβ ligand-binding domain (LBD) (Homo sapiens, UniProt P55055, DUP175-175); test: LXR Gal4 reporter transient transfection assay (M2H), Gal4β LBD; format: cell-based; conditions: HEK293 cells; for EC50: read-out: M2H Gal4β LBD activity range (EC50)
T2 construct: LXRβ (amino acids 156-461); expressed in transfected cells; host or cells: HEK293
T2 sequence (P55055 with tags, fused parts or gaps DUP175-175): T1 sequence (P55055 with tags, fused parts or gaps DUP175-175)
Protocol: (§1) The tested compounds were usually dissolved, tested and stored as 20 mM stock solutions in DMSO. Since sulfonyl acetic acid derivatives tend to decarboxylate under these conditions, these stock solutions were prepared, tested and stored as 20 mM DMSO stock solutions containing 100 mM trifluoroacetic acid (5 equivalents). Sulfonyl acetic acid derivatives are shelf stable as solid at rt for long time as reported by Griesbrecht et al. (Synlett 2010:374) or Faucher et al. (J. Med. Chem. 2004; 47:18).
(§2) LXR Gal4 Reporter Transient Transfection Assays
(§3) LXRα and LXRβ activity status was determined via detection of interaction with coactivator and corepressor proteins in mammalian two-hybrid experiments (M2H). For this, via transient transfection the full length (FL) proteins of LXRα (amino acids 1-447; NP005684; SEQ ID NO:7) or LXRβ-(amino acids 1-461; NP009052; SEQ ID NO:8) or the ligand-binding domains (LBD) of LXRα (amino acids 155-447 SEQ ID NO:3) or LXRβ (amino acids 156-461; SEQ ID NO:4) were expressed from pCMV-AD (Stratagene) as fusions to the transcriptional activation domain of NFkB. As cofactors, domains of either the steroid receptor coactivator 1 (SRC1; amino acids 552-887; SEQ ID NO:5) or of the corepressor NCoR (amino acids 1903-2312 SEQ ID NO:6) were expressed as fusions to the DNA binding domain of the yeast transcription factor GAL4 (from pCMV-BD; Stratagene). Interaction was monitored via activation of a coexpressed Firefly Luciferase Reporter gene under control of a promoter containing repetitive GAL4 response elements (vector pFRLuc; Stratagene). Transfection efficiency was controlled via cotransfection of constitutively active pRL-CMV Renilla reniformis luciferase reporter (Promega). HEK293 cells were grown in minimum essential medium (MEM) with 2 mM L-glutamine and Earle's balanced salt solution supplemented with 8.3% fetal bovine serum, 0.1 mM non-essential amino acids, 1 mM sodium pyruvate, at 37° C. in 5% CO2. 3.5×10^4 cells/well were plated in 96-well cell culture plates in growth medium supplemented with 8.3% fetal bovine serum for 16-20 h to ˜90% confluency. For transfection, medium was taken off and LXR and cofactor expressing plasmids as well as the reporter plasmids are added in 30 μL OPTIMEM/well including polyethylene-imine (PEI) as vehicle. Typical amounts of plasmids transfected/well: pCMV-AD-LXR (5 ng), pCMV-BD-cofactor (5 ng), pFR-Luc (100 ng), pRL-CMV (0.5 ng). Compound stocks were prepared in DMSO, prediluted in MEM to a total volume of 120 μL, and added 4 h after addition of the transfection mixture (final vehicle concentration not exceeding 0.2%). Cells were incubated for additional 16 h, lysed for 10 min in 1× Passive Lysis Buffer (Promega) and Firefly and Renilla luciferase activities were measured sequentially in the same cell extract using buffers containing D-luciferine and coelenterazine, respectively. Measurements of luminescence were done in a BMG-Iuminometer.

[6] = molecular target: T3, LXRα ligand-binding domain (LBD) (Homo sapiens, UniProt Q13133); test: LXR Gal4 reporter transient transfection assay (M2H), Gal4α LBD; format: cell-based; conditions: HEK293 cells; for EC50: read-out: M2H Gal4α LBD activity range (EC50)
T3 construct: expressed in transfected cells; host or cells: HEK293
T3 sequence (Q13133 155-447): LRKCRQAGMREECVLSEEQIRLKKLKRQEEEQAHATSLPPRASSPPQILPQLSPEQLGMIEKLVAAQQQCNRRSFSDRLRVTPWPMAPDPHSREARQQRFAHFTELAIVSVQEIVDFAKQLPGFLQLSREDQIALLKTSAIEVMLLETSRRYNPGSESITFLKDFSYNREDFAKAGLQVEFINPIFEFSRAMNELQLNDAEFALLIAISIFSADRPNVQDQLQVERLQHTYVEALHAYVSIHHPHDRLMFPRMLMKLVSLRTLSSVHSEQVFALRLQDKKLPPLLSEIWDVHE
Protocol: as §1, §2, §3

[7] = tested on: LXR; conditions: acid formed by ester cleavage of SR9238; cited from earlier work

SMILES	EC50 [4]	behavior in FRET assay [4]	EC50 [5]	EC50 [6]	other results
CCOC(=O)c1ccc(CN(Cc2ccc(-c3cccc(S(C)(=O)=O)c3)cc2)S(=O)(=O)c2c(C)cc(C)cc2C)o1 [SR9238, reference compound]	–	–	–	–	oral bioavailability (in words) [1]: not orally bioavailable; blood exposure, 4 h [1]: po: below LLOQ; liver exposure, 4 h [1]: po: below LLOQ
Cc1cc(C)c(S(=O)(=O)N(Cc2ccc(-c3cccc(S(C)(=O)=O)c3)cc2)Cc2ccc(C(F)(F)F)o2)c(C)c1 [GSK2033, reference compound]	–	–	–	–	clearance (Clint) [2]: > 1.0 mL/min/mg prot; oral bioavailability (in words) [1]: not orally bioavailable; blood exposure, 4 h [1]: (14.4 ng/mL); liver exposure, 4 h [1]: (9.6 ng/mL); clearance (Clint) [3]: > 1.0 mL/min/mg prot
Cc1cc(C)c(S(=O)(=O)N(Cc2ccc(C(F)(F)F)o2)CC2CC=C(c3cccc(C(C)(C)C(=O)O)c3)CC2)c(C)c1 (stereo not drawn) [Example 19, 2-Methyl-2-(4′-(((2,4,6-trimethyl-N-((5-(trifluoromethyl)furan-2-yl)methyl)phenyl)sulfon-amido)methyl)-2′,3′,4′,5′-tetrahydro-[1,1′-biphenyl]-3-yl)propanoic acid]	100 to 1000 nM	ia	< 100 nM	100 to 1000 nM	–
Cc1cc(C)c(S(=O)(=O)N(Cc2ccc(-c3cccc(Cc4nn[nH]n4)c3)cc2)Cc2ccc(C(F)(F)F)o2)c(C)c1 [Example C7, N-((3′-((2H-Tetrazol-5-yl)methyl)-[1,1′-biphenyl]-4-yl)methyl)-2,4,6-trimethyl-N-((5-(trifluoro-methyl)furan-2-yl)methyl)benzenesulfonamide]	1000 to 10000 nM	ia	100 to 1000 nM	100 to 1000 nM	–
Cc1cc(C)c(S(=O)(=O)N(Cc2ccc(C3=CS(=O)(=O)C(CC(=O)O)=C3)cc2)Cc2ccc(C(F)(F)F)o2)c(C)c1 [25/3]	1000 to 10000 nM	ia	100 to 1000 nM	100 to 1000 nM	–
COc1ccc(C(C)(C)C(=O)O)cc1-c1ccc(CN(Cc2ccc(C(F)(F)F)o2)S(=O)(=O)c2c(C)cc(C)cc2C)cc1 [7/10]	1000 to 10000 nM	ia	100 to 1000 nM	1000 to 10000 nM	–
COc1cc(-c2ccc(CO)c(C(C)(C)C(=O)[O-])c2)ccc1CN(Cc1ccc(C(F)(F)F)o1)S(=O)(=O)c1c(C)ccc2ccccc12.[Na+] [Example 23, Sodium 2-(4-(hydroxymethyl)-3′-methoxy-4′-(((2-methyl-N-((5-(trifluoromethyl)furan-2-yl)methyl)naphthalene)-1-sulfonamido)methyl)-[1,1′-biphenyl]-3-yl)-2-methylpropanoate]	100 to 1000 nM	ia	< 100 nM	< 100 nM	–
Cc1cc(C)c(S(=O)(=O)N(Cc2ccc(-c3cccc(CC(=O)O)c3)cc2)Cc2cccc(Br)c2)c(C)c1 [2/3]	1000 to 10000 nM	ia	100 to 1000 nM	100 to 1000 nM	–
Cc1cc(C)c(S(=O)(=O)N(Cc2ccc(-c3cccc(CC(=O)O)c3)cc2)Cc2cccc(C(F)(F)F)c2)c(C)c1 [2/4]	100 to 1000 nM	ia	< 100 nM	100 to 1000 nM	–
Cc1cc(C)c(S(=O)(=O)N(Cc2ccc(-c3cccc(S(C)(=O)=O)c3)cc2)Cc2ccc(C(=O)O)o2)c(C)c1 [SR10389]	–	–	–	–	activity on LXR (in words) [7]: inactive
Cc1cc(C)c(S(=O)(=O)N(Cc2ccc(-c3cccc(S(=O)(=O)O)c3)cc2)Cc2ccc(C(F)(F)F)o2)c(C)c1 [Example 3, 4′-(((2,4,6-Trimethyl-N-((5-(trifluoromethyl)furan-2-yl)methyl)phenyl)sulfon-amido)methyl)-[1,1′-biphenyl]-3-sulfonic acid]	1000 to 10000 nM	ia	–	–	M2H Gal4β LBD activity range (EC50) [5]: inactive; M2H Gal4α LBD activity range (EC50) [6]: inactive
CCOC(=O)Cc1cccc(-c2ccc(CN(Cc3ccc(C(F)(F)F)o3)S(=O)(=O)c3c(C)cc(C)cc3C)cc2)c1 [Example 1]	> 10000 nM	ia	< 100 nM	100 to 1000 nM	–
